Structures are written as SMILES.

The test system of the first assay is NCI-H358(KRAS^G12C mutation) cells. The assay is described as follows: Cell assay of antiproliferative activity (Celltiter-Glo, 5 days) against NCI-H358 cells. The conditions noted are these: 5 days incubation. The class given is cell-based. The method, then: Cell assay of antiproliferative activity of compounds against NCI-H358(KRAS^G12C mutation) and A549(KRAS^G12S mutation) cells.
40 μl phosphate buffer was added to the outer wells of the 384 microplate, and 40 μl cell suspension to be tested was added to the other wells. Then the microplate was incubated in a carbon dioxide incubator overnight.
The compounds to be tested were gradiently diluted, each compound was performed 10 concentration gradients (diluted from 50 μM to 0.003 μM) and added 100 nL to the corresponding wells in the microplate. After addition, 40 μl of phosphate buffer was added to each well in rows A and P and columns 1 and 24, and then the microplate was incubated in a carbon dioxide incubator for 5 days.
20 μL of Promega Celltiter-Glo reagent was added to each well of the microplate, and then the luminescence signal was stabilized by oscillating at room temperature for 10 min. Then PekinElmer Envision multi-label analyzer was used to read.
Finally, GraphPad Prism software was used to calculate the IC50 value of the compound and the fitting curve was drawn.
Anti-proliferative activity of the compounds of the present invention against NCI-H358(KRAS^G12C mutation) and A549(KRAS^G12S mutation) cells were shown in Table 1.
Compound `C=C(F)C(=O)N1CCN(c2nc(OCC3(C(C)N(C)C)CC3)nc3c2CCN(c2cccc4cccc(Cl)c24)C3)C[C@@H]1CC#N` (stereo partly drawn) [Example 47A, 2-((2S)-4-(7-(8-chloronaphthalen-1-yl)-2-((1-(1-(dimethylamino)ethyl)cyclopropyl)methoxy)-5,6,7,8-tetrahydropyrido[3,4-d]pyrimidin-4-yl)-1-(2-fluoroacroloyl)piperazin-2-yl) acetonitrile] displayed a concentration for half-maximal inhibition (IC50) of 100 nM.

Take `C=C(F)C(=O)N1CCN(c2nc(OCC3(C(C)N(C)C)CC3)nc3c2CCN(c2cccc4cccc(Cl)c24)C3)C[C@@H]1CC#N` (stereo partly drawn) [Example 47B, 2-((2S)-4-(7-(8-chloronaphthalen-1-yl)-2-((1-(1-(dimethylamino)ethyl)cyclopropyl)methoxy)-5,6,7,8-tetrahydropyrido[3,4-d]pyrimidin-4-yl)-1-(2-fluoroacroloyl)piperazin-2-yl) acetonitrile]: the 50% inhibitory concentration (IC50) stood at 71 nM.

On to `C=C(F)C(=O)N1CCN(c2nc(OCC3(C(C)N(C)C)CC3)nc3c2CCN(c2cccc4cccc(Cl)c24)C3)C[C@@H]1CC#N` (stereo partly drawn) [Example 53A, 2-((2S)-4-(7-(8-chloronaphthalen-1-yl)-2-(1-(1-((dimethylamino)ethyl)cyclopropyl)methoxy)-5,6,7,8-tetrahydropyrido[3,4-d]pyrimidin-4-yl)-1-(2-fluoroacroloyl)piperazin-2-yl) acetonitrile], for which the half-inhibitory concentration (IC50) worked out at 1400 nM.

In the case of `C=C(F)C(=O)N1CCN(c2nc(OCC3(C(C)N(C)C)CC3)nc3c2CCN(c2cccc4cccc(Cl)c24)C3)C[C@@H]1CC#N` (stereo partly drawn) [Example 53B, 2-((2S)-4-(7-(8-chloronaphthalen-1-yl)-2-(1-(1-((dimethylamino)ethyl)cyclopropyl)methoxy)-5,6,7,8-tetrahydropyrido[3,4-d]pyrimidin-4-yl)-1-(2-fluoroacroloyl)piperazin-2-yl) acetonitrile], the 50% inhibitory concentration (IC50) stood at 1300 nM.

Staying with this assay, now noted: Homo sapiens, NCI-H358, 120 h, 5 days incubation.
Compound `[2H]C([2H])([2H])N(CC1(COc2nc3c(c(N4CCN(C(=O)C(=C)F)[C@@H](CC#N)C4)n2)CCN(c2cccc4cccc(Cl)c24)C3)CC1)C([2H])([2H])[2H]` [Example 45] returned an IC50 of 49 nM.

The compound `C=C(F)C(=O)N1CCN(c2nc(OCC3(COC)CN(C)C3)nc3c2CCN(c2cccc4cccc(Cl)c24)C3)C[C@@H]1CC#N` [Example 46] gave an IC50 of 37 nM.

With `C=C(F)C(=O)N1CCN(c2nc(OCC3(CN4CCC4)CC3)nc3c2CCN(c2cccc4cccc(Cl)c24)C3)C[C@@H]1CC#N` [Example 48], the IC50 is 65 nM.

`CC#CC(=O)N1CCN(c2nc(OCC3(CN(C)C)CC3)nc3c2CCN(c2cccc4cccc(Cl)c24)C3)C[C@@H]1CC#N` [Example 49, (S)-2-(1-(but-2-ynoyl)-4-(7-(8-chloronaphthalen-1-yl)-2-((1-((dimethylamino)methyl)cyclopropyl)methoxyl)-5,6,7,8-tetrahydropyrido[3,4-d]pyrimidin-4-yl)piperazin-2-yl) acetonitrile] came in with an IC50 of 43 nM.

`C=CC(=O)N1CCN(c2nc(OCC3(CN(C)C)CC3)nc3c2CCN(c2cccc4cccc(Cl)c24)C3)[C@@H](C)C1` [Example 50, (S)-1-(-4-(7-(8-chloronaphthalen-1-yl)-2-((1-((dimethylamino)methyl)cyclopropyl)methoxyl)-5,6,7,8-tetrahydropyrido[3,4-d]pyrimidin-4-yl)-3-methylpiperazin-1-yl)prop-2-ene-1-one] gave an IC50 of 300 nM.

Compound `C=C(F)C(=O)N1CCN(c2nc(OCC3(CCN(C)C)CC3)nc3c2CCN(c2cccc4cccc(Cl)c24)C3)C[C@@H]1CC#N` [Example 52, (S)-2-(4-(7-(8-chloronaphthalen-1-yl)-2-((1-(2-(dimethylamino)ethyl)cyclopropyl)methoxy)-5,6,7,8-tetrahydropyrido[3,4-d]pyrimidin-4-yl)-1-(2-fluoroacroloyl)piperazin-2-yl) acetonitrile] returned an IC50 of 540 nM.

For `C=C(F)C(=O)N1CCN(c2nc(OCC3(CN(C)CC)CC3)nc3c2CCN(c2cccc4cccc(Cl)c24)C3)C[C@@H]1CC#N` [Example 54, (S)-2-(4-(7-(8-chloronaphthalen-1-yl)-2-((1-((ethyl (methyl)amino)methyl)cyclopropyl)methoxy)-5,6,7,8-tetrahydropyrido[3,4-d]pyrimidin-4-yl)-1-(2-fluoroacroloyl)piperazin-2-yl) acetonitrile], 47 nM corresponded to half-maximal inhibition (IC50).

For `C=C(F)C(=O)N1CCN(c2nc(OCCN(C)C34CC(C3)C4)nc3c2CCN(c2cccc4cccc(Cl)c24)C3)C[C@@H]1CC#N` [Example 55], the 50% inhibitory concentration (IC50) came to 870 nM.

`C=C(F)C(=O)N1CCN(c2nc(OCC3(CN(C)C(C)C)CC3)nc3c2CCN(c2cccc4cccc(Cl)c24)C3)C[C@@H]1CC#N` [Example 56, (S)-2-(4-(7-(8-chloronaphthalen-1-yl)-2-((1-((isopropyl(methyl)amino)methyl)cyclopropyl)methoxy)-5,6,7,8-tetrahydropyrido[3,4-d]pyrimidin-4-yl)-1-(2-fluoroacroloyl)piperazin-2-yl) acetonitrile] showed an IC50 of 61 nM.

In the case of `C=C(F)C(=O)N1CCN(c2nc(OCC3(CS(C)(=O)=O)CC3)nc3c2CCN(c2cccc4cccc(Cl)c24)C3)C[C@@H]1CC#N` [Example 57, (S)-2-(4-(7-(8-chloronaphthalen-1-yl)-2-((1-((methylsulfonyl)methyl)cyclopropyl)methoxy)-5,6,7,8-tetrahydropyrido[3,4-d]pyrimidin-4-yl)-1-(2-fluoroacroloyl)piperazin-2-yl) acetonitrile], the half-maximal inhibitory concentration (IC50) was 1300 nM.

As to `C=C(F)C(=O)N1CCN(c2nc(OCC3(CN4CCC4)CC3)nc3c2CCN(c2cccc4ccc(F)c(Cl)c24)C3)C[C@@H]1CC#N` [Example 58, (S)-2-(4-(2-((1-(azetidin-1-ylmethyl)cyclopropyl)methoxy)-7-(8-chloro-7-fluoronaphthalen-1-yl)-5,6,7,8-tetrahydropyrido[3,4-d]pyrimidin-4-yl)-1-(2-fluoroacroloyl)piperazin-2-yl) acetonitrile], the half-maximal inhibitory concentration (IC50) amounted to 65 nM.

As for `C=C(F)C(=O)N1CCN(c2nc(OCC3(CN4CC(F)(F)C4)CC3)nc3c2CCN(c2cccc4ccc(F)c(Cl)c24)C3)C[C@@H]1CC#N` [Example 59], the 50% inhibitory concentration (IC50) is 810 nM.

`C=C(F)C(=O)N1CCN(c2nc(OCC3(CN(CC)CC)CC3)nc3c2CCN(c2cccc4ccc(F)c(Cl)c24)C3)C[C@@H]1CC#N` [Example 60, (S)-2-(4-(7-(8-chloro-7-fluoronaphthalen-1-yl)-2-((1-((diethylamino)methyl)cyclopropyl)methoxy)-5,6,7,8-tetrahydropyrido[3,4-d]pyrimidin-4-yl)-1-(2-fluoroacroloyl)piperazin-2-yl) acetonitrile]: half-maximal inhibition (IC50) required 92 nM.

Compound `C=C(F)C(=O)N1CCN(c2nc(OCC3(CN(C)C(C)C)CC3)nc3c2CCN(c2cccc4ccc(F)c(Cl)c24)C3)C[C@@H]1CC#N` [Example 61, (S)-2-(4-(7-(8-chloro-7-fluoronaphthalen-1-yl)-2-((1-((isopropyl(methyl)amino)methyl)cyclopropyl)methoxy)-5,6,7,8-tetrahydropyrido [3,4-d]pyrimidin-4-yl)-1-(2-fluoroacroloyl)piperazin-2-yl) acetonitrile] had an IC50 of 110 nM.

In the case of `C=C(F)C(=O)N1CCN(c2nc(OCC3(CN(C)CC)CC3)nc3c2CCN(c2cccc4ccc(F)c(Cl)c24)C3)C[C@@H]1CC#N` [Example 62, (S)-2-(4-(7-(8-chloro-7-fluoronaphthalen-1-yl)-2-((1-((ethyl(methyl)amino)methyl)cyclopropyl)methoxy)-5,6,7,8-tetrahydropyrido[3,4-d]pyrimidin-4-yl)-1-(2-fluoroacroloyl)piperazin-2-yl) acetonitrile], 36 nM corresponded to half-maximal inhibition (IC50).

On to `[2H]C([2H])([2H])N(CC1(COc2nc3c(c(N4CCN(C(=O)C(=C)F)[C@@H](CC#N)C4)n2)CCN(c2cccc4ccc(F)c(Cl)c24)C3)CC1)C([2H])([2H])[2H]` [Example 63], for which half-maximal inhibition (IC50) required 7 nM.

In turn, `C=C(F)C(=O)N1CCN(c2nc(OCC3(CN4CC(F)C4)CC3)nc3c2CCN(c2cccc4ccc(F)c(Cl)c24)C3)C[C@@H]1CC#N` [Example 65, (S)-2-(4-(7-(8-chloro-7-fluoronaphthalen-1-yl)-2-((1-((3-fluoroazetidin-1-yl)methyl)cyclopropyl)methoxy)-5,6,7,8-tetrahydropyrido[3,4-d]pyrimidin-4-yl)-1-(2-fluoroacroloyl)piperazin-2-yl) acetonitrile] displayed a half-inhibitory concentration (IC50) of 45 nM.

`C=C(F)C(=O)N1CCN(c2nc(OCC3(CN4CC(F)C4)CC3)nc3c2CCN(c2cccc4ccc(F)cc24)C3)C[C@@H]1CC#N` [Example 66] gave a half-maximal inhibitory concentration (IC50) of 180 nM.

With `C=C(F)C(=O)N1CCN(c2nc(OCC3(CN4CC(C)C4)CC3)nc3c2CCN(c2cccc4ccc(F)c(Cl)c24)C3)C[C@@H]1CC#N` [Example 67, (S)-2-(4-(7-(8-chloro-7-fluoronaphthalen-1-yl)-2-((1-((3-methylazetidin-1-yl)methyl)cyclopropyl)methoxy)-5,6,7,8-tetrahydropyrido[3,4-d]pyrimidin-4-yl)-1-(2-fluoroacroloyl)piperazin-2-yl) acetonitrile], the IC50 worked out at 51 nM.

The compound `C=C(F)C(=O)N1CCN(c2nc(OCC3(CN4CC(O)C4)CC3)nc3c2CCN(c2cccc4ccc(F)c(Cl)c24)C3)C[C@@H]1CC#N` [Example 68, (S)-2-(4-(7-(8-chloro-7-fluoronaphthalen-1-yl)-2-((1-((3-hydroxyazetidin-1-yl)methyl)cyclopropyl)methoxy)-5,6,7,8-tetrahydropyrido [3,4-d]pyrimidin-4-yl)-1-(2-fluoroacroloyl)piperazin-2-yl) acetonitrile] gave a 50% inhibitory concentration (IC50) of 86 nM.
